Reference: PubChem BioAssay (NCI)
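Each compound was tested at five concentrations against cells in 96-well plates for 48 hours. TGI: concentration producing complete growth inhibition.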 Where a SMILES comes first, the peptide text is derived from it. [ ]: non-standard residue; d: D form. The star is where a group is joined. NMeAc5c = CNC1(C(=O)O)CCCC1; Boc = CC(C)(C)OC(=O)*; OBn = c1ccc(CO*)cc1

Legend:
Assay in all cases: DTP human tumour cell line panel, 48 h
SR leukemia = system: SR leukemia
DU-145 prostate = system: DU-145 prostate
SNB-75 CNS = system: SNB-75 CNS
MDA-MB-231 breast = system: MDA-MB-231 breast
SF-295 CNS = system: SF-295 CNS
NCI-H460 lung = system: NCI-H460 lung
M14 melanoma = system: M14 melanoma
NCI/ADR-RES ovarian = system: NCI/ADR-RES ovarian
RPMI-8226 leukemia = system: RPMI-8226 leukemia
OVCAR-5 ovarian = system: OVCAR-5 ovarian

Row | Structure (SMILES) | TGI (SR leukemia) | TGI (DU-145 prostate) | TGI (SNB-75 CNS) | TGI (MDA-MB-231 breast) | TGI (SF-295 CNS) | TGI (NCI-H460 lung) | TGI (M14 melanoma) | TGI (NCI/ADR-RES ovarian) | TGI (RPMI-8226 leukemia) | TGI (OVCAR-5 ovarian)
1 | Cc1ccc(-c2n[nH]c(=O)n2N2C(=O)c3ccccc3C2=O)cc1 | > 100 µM | > 100 µM | > 100 µM | > 100 µM | > 100 µM | > 100 µM | > 100 µM | > 100 µM | > 100 µM | > 100 µM
2 | COc1cc2c(c(OC)c1OC)C(=O)[C@@H]1[C@H]2N1C(N)=O | > 100 µM | > 100 µM | > 100 µM | > 100 µM | > 100 µM | > 100 µM | > 100 µM | > 100 µM | > 100 µM | > 100 µM
3 | Cc1ccc(N=NC(=Nc2ccccc2)c2ccc(N(CCC#N)CCC#N)cc2)cc1 | > 100 µM | > 100 µM | > 100 µM | 55.8 µM | 92.4 µM | 45.5 µM | > 100 µM | > 100 µM | > 100 µM | > 100 µM
4 | O=[N+]([O-])c1ccc2c(c1)/C(=N/N=C1c3ccccc3Cc3ccccc31)c1cc([N+](=O)[O-])cc([N+](=O)[O-])c1-2 | > 25.7 µM | 13.7 µM | 9.28 µM | 6.42 µM | 3.7 µM | 14.1 µM | 6.28 µM | 4.91 µM | > 100 µM | 6 µM
5 | O=c1c2cc([N+](=O)[O-])cnc2sn1-c1ccc([N+](=O)[O-])cc1 | 54.6 µM | > 100 µM | > 100 µM | 53.6 µM | > 100 µM | > 100 µM | > 100 µM | 99.3 µM | 81.2 µM | > 100 µM
6 | CN1CCN(C2=NCCO2)CC1 | > 100 µM | > 100 µM | > 100 µM | > 100 µM | > 100 µM | > 100 µM | > 100 µM | > 100 µM | > 100 µM | > 100 µM
7 | O=C1C=CC(=O)c2c1ccc1c3ccccc3n(CCCCCCCCCCCCn3c4ccccc4c4ccc5c(c43)C(=O)C=CC5=O)c21 | > 100 µM | > 100 µM | > 100 µM | > 100 µM | > 100 µM | > 100 µM | > 100 µM | > 100 µM | > 100 µM | > 100 µM
8 | COc1cc(Br)cc2cc(-c3cn4ccsc4n3)c(=O)oc12 | > 100 µM | > 100 µM | > 100 µM | 80.9 µM | 76.6 µM | > 100 µM | > 100 µM | > 100 µM | > 100 µM | > 100 µM
9 | CCOC(=O)/C=C/CC(C)(C)CCOC(C)=O | > 10 µM | > 10 µM | > 10 µM | > 10 µM | > 10 µM | > 10 µM | > 10 µM | > 10 µM | > 10 µM | > 10 µM
10 | COc1ccc(C2CC(c3c(O)ccc4ccccc34)=NN2C(C)=O)cc1OC (stereo not given) | 40.6 µM | 92 µM | > 100 µM | 56.5 µM | > 100 µM | 93.5 µM | 69.4 µM | > 100 µM | 54.4 µM | > 100 µM
11 | Nn1c(-c2ccccc2)nn(C(=O)c2ccccc2)c1=O | > 100 µM | > 100 µM | > 100 µM | > 100 µM | > 100 µM | > 100 µM | > 100 µM | > 100 µM | > 100 µM | > 100 µM
12 | COC(=O)c1c(C)cccc1C1CN=NC12Cc1ccc(C)cc1C2=O (stereo not given) | > 100 µM | > 100 µM | > 100 µM | > 100 µM | > 100 µM | 28.2 µM | > 100 µM | > 100 µM | > 100 µM | > 100 µM
13 | CN(C(=O)C(Cc1ccccc1)NC(=O)OC(C)(C)C)C1(C(=O)NC(Cc2ccccc2)C(=O)OCc2ccccc2)CCCC1 (stereo not drawn) (Boc-Phe-[NMeAc5c]-Phe-OBn; configuration not given here) | 69.1 µM | > 100 µM | > 100 µM | 87 µM | > 100 µM | 59.8 µM | 45.9 µM | > 100 µM | 57.2 µM | > 100 µM
14 | Cc1nc2n(c1/C=C1/C(=O)Nc3cccc(Cl)c31)CCS2 | > 100 µM | > 100 µM | 37.5 µM | 52.5 µM | > 100 µM | > 100 µM | > 100 µM | > 100 µM | > 100 µM | > 100 µM
15 | c1csc(-c2ccc(-c3cccc4nsnc34)s2)c1 | 52.2 µM | > 100 µM | > 100 µM | > 100 µM | > 100 µM | > 100 µM | > 100 µM | > 100 µM | > 100 µM | > 100 µM
16 | CCOC(=O)C(SCCO)C(C(=O)OCC)n1cnc2c(=O)[nH]c(NC(C)=O)nc21 (stereo not given) | > 100 µM | > 100 µM | > 100 µM | > 100 µM | > 100 µM | > 100 µM | > 100 µM | > 100 µM | > 100 µM | > 100 µM
17 | O=C1/C(=C\c2ccccc2)C(NC2CCCCC2)c2ccccc21 (stereo not given) | 0.473 µM | 3.09 µM | 4.45 µM | 5.2 µM | 33.5 µM | 8.02 µM | 3.18 µM | 98.5 µM | 2.42 µM | 10.4 µM
18 | Cc1ccc(C(=O)O)cc1S(=O)(=O)Nn1cnc2ccc(S(=O)(=O)Nc3ccccc3C(=O)O)cc2c1=O | > 100 µM | > 100 µM | > 100 µM | > 100 µM | > 100 µM | > 100 µM | > 100 µM | > 100 µM | > 100 µM | > 100 µM
19 | C[C@]12CCC(O)CC1=CC[C@@H]1[C@@H]2CC[C@]2(C)C(=O)[C@H](n3ccnc3)C[C@@H]12 (stereo not given in full) | > 100 µM | > 100 µM | > 100 µM | > 100 µM | > 100 µM | > 100 µM | > 100 µM | > 100 µM | > 100 µM | > 100 µM
20 | COC(=O)c1cc(=O)nc2sc3cccc(C)c3n12 | > 100 µM | > 100 µM | > 100 µM | > 100 µM | > 100 µM | > 100 µM | > 100 µM | > 100 µM | 67.9 µM | > 100 µM
21 | N#Cc1c(N2CCCC2)ncn(-c2ccccc2)c1=O | > 100 µM | > 100 µM | > 100 µM | > 100 µM | > 100 µM | > 100 µM | > 100 µM | > 100 µM | > 100 µM | > 100 µM
22 | Cc1ccccc1C(=O)N1CCc2c([nH]c3ccccc23)C1 | 50 µM | 84.5 µM | 61.9 µM | 34.1 µM | > 100 µM | 53.4 µM | 45.4 µM | 62.7 µM | 51.3 µM | 76.3 µM
23 | Cc1ccc([N+](=O)[O-])cc1NC1=NCCO1 | > 100 µM | > 100 µM | > 100 µM | > 100 µM | > 100 µM | > 100 µM | > 100 µM | > 100 µM | > 100 µM | > 100 µM
24 | O=C1CSC(c2ccc(Cl)cc2)N1c1ccc(Oc2ccc(Cl)cc2)c(Cl)c1 (stereo not given) | 41 µM | 27.2 µM | 24.7 µM | 30.7 µM | 30.8 µM | 35.5 µM | 33.3 µM | 35.3 µM | 63.8 µM | 29.6 µM
25 | c1ccc(-c2nc(-c3ccccc3SSc3ccccc3-c3nc(-c4ccccc4)nn3-c3ccccc3)n(-c3ccccc3)n2)cc1 | > 100 µM | > 100 µM | > 100 µM | > 100 µM | > 100 µM | > 100 µM | > 100 µM | > 100 µM | > 100 µM | > 100 µM
26 | S=C1Nc2ccccc2SC1c1ccccc1 (stereo not given) | > 100 µM | > 100 µM | 71.3 µM | > 100 µM | > 100 µM | > 100 µM | > 100 µM | > 100 µM | > 100 µM | > 100 µM
27 | ClCCN1CCC2(CC1)SSC1(CCN(CCCl)CC1)S2 | > 100 µM | > 100 µM | > 100 µM | > 100 µM | 92.5 µM | > 100 µM | > 100 µM | > 100 µM | 57.1 µM | 72 µM
28 | C[C@@H](NC(=O)[C@@H]1C[C@]1(C)COC(=O)c1cc([N+](=O)[O-])cc([N+](=O)[O-])c1)c1cccc2ccccc12 | > 100 µM | > 100 µM | > 100 µM | > 100 µM | > 100 µM | > 100 µM | > 100 µM | > 100 µM | > 100 µM | > 100 µM
29 | C#CCNC(CS)C(=O)O (stereo not given) | > 100 µM | > 100 µM | > 100 µM | > 100 µM | > 100 µM | > 100 µM | > 100 µM | > 100 µM | > 100 µM | > 100 µM
